PMC8701318, “LC-QTOF-MS/MS Based Molecular Networking Approach for the Isolation of α-Glucosidase Inhibitors and Virucidal Agents from Coccinia grandis (L.) Voigt” (Foods, 2021)

Assays:
[1] = system: influenza A virus H1N1; test: Virucidal activity, ASTM E1053-20 method; type: cell-based; details: for Virucidal Activity Log Reduction: 10 min exposure
[2] = system: α-glucosidase; set-up: method as in PMID 24125526; details: isolated from leaves of Morus atropurpurea; cited from earlier work
[3] = target: α-Glucosidase enzyme (Saccharomyces cerevisiae); test: In-vitro α-glucosidase inhibitory assay (p-NPG substrate); details: read-out: α-Glucosidase Inhibitory Activity, IC50; mean ± s.d. of a triplicate experiment
Procedure: The α-glucosidase assay was performed as described by Liu et al. [21] with slight modification. The reaction mixture consisting of 50 µL of potassium phosphate buffer (PBS, 0.1 M, pH 6.8) and 20 µL of α-glucosidase (0.5 U/mL) was pre-incubated with 20 µL of the test sample at 37 °C for 15 min in a 96-well plate. The mixture was added 20 µL p-NPG (1 mM) and incubated again at 37 °C for 15 min. A total of 50 µL of Na2CO3 (0.2 M) was added to terminate the enzymatic activity. The absorbance value of each well was measured immediately using a microplate reader at 405 nm. […] All glycosides were dissolved in 50% DMSO, while a crude extract was dissolved in 100% DMSO. The experiment was performed in triplicate. The enzyme inhibition rate was calculated as follows:(1) [1−(ODsample−ODsample blank)/(ODcontrol−ODblank)] × 100 where ODsample represents the absorbance of PBS + enzyme + sample + p-NPG; ODsample blank represents the absorbance of PBS + sample; ODcontrol represents the absorbance of PBS + enzyme + solvent + p-NPG; ODblank represents the absorbance of PBS + solvent. The inhibitory activity is expressed as IC50 (half minimal inhibitory concentration) value. Data were normalized, and the IC50 values were calculated using GraphPad Prism 9.2.0.

[4] = Cytotoxicity in MDCK cells by the MTT assay; details: dog
[5] = system: hepatitis C virus; set-up: method as in PMID 28638096; details: cited from earlier work
[6] = system: dengue virus serine protease; set-up: method as in PMID 32107969; details: cited from earlier work
[7] = mice model; cited from earlier work
[8] = set-up: method as in earlier work; details: isolated from cottonseeds; cited from earlier work
[9] = system: hippocampal neural progenitor cells; set-up: method as in PMID 19326568; details: possibly via the 5-HT1A receptor; cited from earlier work

SMILES: C[C@@H]1O[C@@H](OC[C@H]2O[C@@H](Oc3c(-c4ccc(O)c(O)c4)oc4cc(O)cc(O)c4c3=O)[C@H](O)[C@@H](O)[C@@H]2O)[C@H](O)[C@H](O)[C@H]1O [Compound 1, rutin]
- Virucidal Activity Log Reduction ([1]; 3.9 µg/mL): 1.20 ± 0.025 Log
- Virucidal Activity Log Reduction ([1]; 7.8 µg/mL): 1.32 ± 0.032 Log
- Virucidal Activity Log Reduction ([1]; 15.6 µg/mL): 1.34 ± 0.044 Log
- Virucidal Activity Log Reduction ([1]; 31.3 µg/mL): 1.34 ± 0.030 Log
- Virucidal Activity Log Reduction ([1]; 62.5 µg/mL): 1.52 ± 0.045 Log
- Virucidal Activity Log Reduction ([1]; 125.0 µg/mL): 1.80 ± 0.105 Log
- α-glucosidase inhibitory activity (in words) [2]: α-glucosidase inhibitory activity
- IC50 [3]: 243 ± 5.29 µM
- viability at 3.9 µg/mL [4]: 99.3 ± 3.45%
- viability at 7.8 µg/mL [4]: 97.8 ± 0.31%
- viability at 15.6 µg/mL [4]: 94.7 ± 3.93%
- viability at 31.3 µg/mL [4]: 86.5 ± 2.16%
- viability at 62.5 µg/mL [4]: 83.8 ± 2.02%
- viability at 125 µg/mL [4]: 77.2 ± 1.28%
- hepatitis C virus entry inhibition (in words) [5]: potent hepatitis C virus entry inhibitor

SMILES: C[C@@H]1O[C@@H](OC[C@H]2O[C@@H](Oc3c(-c4ccc(O)cc4)oc4cc(O)cc(O)c4c3=O)[C@H](O)[C@@H](O)[C@@H]2O)[C@H](O)[C@H](O)[C@H]1O [Compound 2, kaempferol 3-O-rutinoside]
- Virucidal Activity Log Reduction ([1]; 3.9 µg/mL): 1.66 ± 0.071 Log
- Virucidal Activity Log Reduction ([1]; 7.8 µg/mL): 1.65 ± 0.084 Log
- Virucidal Activity Log Reduction ([1]; 15.6 µg/mL): 1.66 ± 0.071 Log
- Virucidal Activity Log Reduction ([1]; 31.3 µg/mL): 1.68 ± 0.046 Log
- Virucidal Activity Log Reduction ([1]; 62.5 µg/mL): 1.82 ± 0.091 Log
- Virucidal Activity Log Reduction ([1]; 125.0 µg/mL): 1.95 ± 0.124 Log
- α-glucosidase inhibitory activity (in words) [2]: α-glucosidase inhibitory activity
- inhibition of dengue virus serine protease (in words) [6]: strong inhibition
- IC50 [3]: 236 ± 27.7 µM
- viability at 3.9 µg/mL [4]: 98.1 ± 1.34%
- viability at 7.8 µg/mL [4]: 96.3 ± 5.13%
- viability at 15.6 µg/mL [4]: 92.3 ± 1.95%
- viability at 31.3 µg/mL [4]: 88.5 ± 2.67%
- viability at 62.5 µg/mL [4]: 86.5 ± 3.82%
- viability at 125 µg/mL [4]: 78 ± 1.75%

SMILES: C[C@@H]1O[C@@H](OC[C@H]2O[C@@H](Oc3c(-c4ccc(O)cc4)oc4cc(O)cc(O)c4c3=O)[C@H](O)[C@@H](O)[C@H]2O)[C@H](O)[C@H](O)[C@H]1O [Compound 3, kaempferol 3-O-alpha-L-rhamnopyranosyl-(1→6)-beta-D-galactopyranoside]
- Virucidal Activity Log Reduction ([1]; 3.9 µg/mL): 1.63 ± 0.069 Log
- Virucidal Activity Log Reduction ([1]; 7.8 µg/mL): 1.66 ± 0.071 Log
- Virucidal Activity Log Reduction ([1]; 15.6 µg/mL): 1.91 ± 0.062 Log
- Virucidal Activity Log Reduction ([1]; 31.3 µg/mL): 1.95 ± 0.124 Log
- Virucidal Activity Log Reduction ([1]; 62.5 µg/mL): 1.91 ± 0.062 Log
- Virucidal Activity Log Reduction ([1]; 125.0 µg/mL): 1.98 ± 0.088 Log
- reduction of virus ([1]; 31.3 and 15.6 µg/mL): 99%
- virucidal Log reduction ([1]; 31.3 and 15.6 µg/mL): around 1.9 Log
- IC50 [3]: 195 ± 18.1 µM
- viability at 3.9 µg/mL [4]: 95.6 ± 6.25%
- viability at 7.8 µg/mL [4]: 92.8 ± 4.84%
- viability at 15.6 µg/mL [4]: 89.7 ± 0.82%
- viability at 31.3 µg/mL [4]: 88.7 ± 0.21%
- viability at 62.5 µg/mL [4]: 83.6 ± 0.74%
- viability at 125 µg/mL [4]: 73.3 ± 0.9%

SMILES: C[C@@H]1O[C@@H](OC[C@H]2O[C@@H](Oc3c(-c4ccc(O)c(O)c4)oc4cc(O)cc(O)c4c3=O)[C@H](O[C@@H]3OCC(O)(CO)[C@H]3O)[C@@H](O)[C@@H]2O)[C@H](O)[C@H](O)[C@H]1O (stereo partly drawn) [Compound 5, quercetin 3-O-β-D-apiofuranosyl-(1→2)-[α-L-rhamnopyranosyl-(1→6)]-β-D-glucopyranoside]
- absorption and tissue distribution (in words) [7]: could be absorbed and distributed into tissues
- antidepressant and cytoprotective effects (in words) [8]: antidepressant and cytoprotective effects
- Virucidal Activity Log Reduction ([1]; 15.6 µg/mL): 1.87 ± 0.072 Log
- Virucidal Activity Log Reduction ([1]; 31.3 µg/mL): 1.84 ± 0.108 Log
- Virucidal Activity Log Reduction ([1]; 62.5 µg/mL): 1.90 ± 0.062 Log
- Virucidal Activity Log Reduction ([1]; 125.0 µg/mL): 1.97 ± 0.088 Log
- Virucidal Activity Log Reduction ([1]; 250.0 µg/mL): 2.01 ± 0.239 Log
- Virucidal Activity Log Reduction ([1]; 500.0 µg/mL): 2.11 ± 0.198 Log
- reduction of virus ([1]; 500.0 and 250.0 µg/mL): 99%
- virucidal Log reduction ([1]; 500.0 and 250.0 µg/mL): 1.93–2.41 Log
- proliferation of hippocampal neural progenitor cells (in words) [9]: could enhance the proliferation
- IC50 [3]: 431 ± 17.6 µM
- viability at 15.6 µg/mL [4]: 95.8 ± 4.22%
- viability at 31.3 µg/mL [4]: 94.1 ± 1.85%
- viability at 62.5 µg/mL [4]: 90 ± 3.08%
- viability at 125 µg/mL [4]: 85.8 ± 2.87%
- viability at 250 µg/mL [4]: 83.7 ± 1.2%
- viability at 500 µg/mL [4]: 82.9 ± 2.06%

SMILES: C[C@@H]1O[C@@H](OC[C@H]2O[C@@H](Oc3c(-c4ccc(O)cc4)oc4cc(O)cc(O)c4c3=O)[C@H](O[C@@H]3OCC(O)(CO)[C@H]3O)[C@@H](O)[C@@H]2O)[C@H](O)[C@H](O)[C@H]1O (stereo partly drawn) [Compound 6, kaempferol 3-O-β-D-apiofuranosyl-(1→2)-[α-L-rhamnopyranosyl-(1→6)]-β-D-glucopyranoside]
- Virucidal Activity Log Reduction ([1]; 15.6 µg/mL): 1.93 ± 0.124 Log
- Virucidal Activity Log Reduction ([1]; 31.3 µg/mL): 1.93 ± 0.124 Log
- Virucidal Activity Log Reduction ([1]; 62.5 µg/mL): 1.93 ± 0.124 Log
- Virucidal Activity Log Reduction ([1]; 125.0 µg/mL): 1.93 ± 0.124 Log
- Virucidal Activity Log Reduction ([1]; 250.0 µg/mL): 1.93 ± 0.124 Log
- Virucidal Activity Log Reduction ([1]; 500.0 µg/mL): 1.97 ± 0.042 Log
- reduction of virus ([1]; 500.0 and 250.0 µg/mL): 99%
- virucidal Log reduction ([1]; 500.0 and 250.0 µg/mL): 1.93–2.41 Log
- IC50 [3]: 456 ± 26 µM
- viability at 15.6 µg/mL [4]: 97 ± 2.99%
- viability at 31.3 µg/mL [4]: 95.7 ± 1.63%
- viability at 62.5 µg/mL [4]: 93.7 ± 4.87%
- viability at 125 µg/mL [4]: 89.5 ± 0.83%
- viability at 250 µg/mL [4]: 88.6 ± 0.43%
- viability at 500 µg/mL [4]: 86.4 ± 2.06%

SMILES: C[C@@H]1O[C@@H](OC[C@H]2O[C@@H](Oc3c(-c4ccc(O)cc4)oc4cc(O)cc(O)c4c3=O)[C@H](O[C@@H]3OCC(O)(CO)[C@H]3O)[C@@H](O)[C@H]2O)[C@H](O)[C@H](O)[C@H]1O (stereo partly drawn) [Compound 7, kaempferol 3-O-β-D-apiofuranosyl-(1→2)-[α-L-rhamnopyranosyl-(1→6)]-β-D-galactopyranoside]
- IC50 [3]: 432 ± 18.9 µM
